Experiment [1] has as its target T1, PAF receptor (dog platelets) (Canis lupus familiaris, UniProt A0A8I3NSH0).
T1 construct: followed by 2×10^7 dog platelets; from tissue; host or cells: dog platelets, washed, intact
T1 sequence (A0A8I3NSH0 1-343): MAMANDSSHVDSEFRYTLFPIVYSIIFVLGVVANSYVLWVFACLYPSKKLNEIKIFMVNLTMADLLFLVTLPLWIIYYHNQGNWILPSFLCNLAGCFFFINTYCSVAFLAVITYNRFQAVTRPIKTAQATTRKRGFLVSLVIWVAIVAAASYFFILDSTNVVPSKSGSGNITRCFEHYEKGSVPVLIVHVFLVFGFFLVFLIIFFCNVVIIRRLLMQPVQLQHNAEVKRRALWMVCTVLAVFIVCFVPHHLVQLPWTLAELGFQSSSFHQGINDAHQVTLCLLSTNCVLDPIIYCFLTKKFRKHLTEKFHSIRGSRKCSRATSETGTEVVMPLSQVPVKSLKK
The experiment is described as follows: PAF Radioreceptor Binding Assay. Conditions: 3H-PAF. As to the method:
Platelet rich plasma is prepared by centrifugation of citrate-treated dog blood. Acidification to pH 6.5 with 0.15M citric acid and centrifugation for 10 minutes at 1000 g yields a platelet pellet which is then washed by resuspension in EDTA-Phosphate Buffered Saline (PBS) and recentrifuged. The washed platelet preparation is adjusted to 2×10^7 platelets/50 μl in 0.1% BSA-PBS.
To a […] microfuge tube containing 50 μl silicone oil (specific gravity 1.023) is added buffer, PAF standard or analog, or an extract to bring the aqueous volume to 150 μl. 50 μl of ^3 H-PAF (10,000 cpm, 45 Ci/mM) is added followed by 2×10^7 dog platelets. After mixing, incubating for 10 minutes at room temperature, and centrifuging for 1 minute in a Beckman Microfuge B (8000 g), the pellet is removed by clipping off the tip of the tube, solubilizing the platelets with 200 μl of 50% methanol, and counting in 10 ml of Aquasol. […] Results obtained with representative compounds of the present invention in this assay are summarized hereinafter in Table I.

In experiment [2] the target is T2, Δ^5 -Lipoxygenase (Rattus norvegicus, UniProt P12527).
T2 construct: using rat basophil leukemia cells (RBL-1 cells) as the enzyme source; endogenous in cells; host or cells: RBL-1 (rat basophil leukemia) cells, 49,300×g supernatant of homogenate
T2 sequence (P12527 1-673): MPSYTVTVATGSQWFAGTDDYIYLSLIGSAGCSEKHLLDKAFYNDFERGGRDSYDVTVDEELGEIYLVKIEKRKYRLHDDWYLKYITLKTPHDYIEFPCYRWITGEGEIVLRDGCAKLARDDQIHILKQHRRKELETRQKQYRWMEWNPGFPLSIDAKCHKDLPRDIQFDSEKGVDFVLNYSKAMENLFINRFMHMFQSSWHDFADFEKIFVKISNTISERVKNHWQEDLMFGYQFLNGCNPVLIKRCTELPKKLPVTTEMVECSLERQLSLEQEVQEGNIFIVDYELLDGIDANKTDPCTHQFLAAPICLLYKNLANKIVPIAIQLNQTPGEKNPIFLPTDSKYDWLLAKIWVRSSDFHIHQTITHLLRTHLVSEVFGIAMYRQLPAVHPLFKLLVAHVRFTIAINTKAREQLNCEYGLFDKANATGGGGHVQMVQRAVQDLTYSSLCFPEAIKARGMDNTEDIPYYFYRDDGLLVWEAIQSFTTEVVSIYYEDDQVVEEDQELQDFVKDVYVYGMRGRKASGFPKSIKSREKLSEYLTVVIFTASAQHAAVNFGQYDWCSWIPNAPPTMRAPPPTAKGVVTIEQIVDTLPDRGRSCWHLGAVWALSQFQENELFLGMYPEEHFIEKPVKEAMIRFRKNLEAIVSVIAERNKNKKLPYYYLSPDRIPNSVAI
The experiment is described as follows: Δ^5 -Lipoxygenase Inhibition. The note with it: RBL-1 cell supernatant; for inhibition at 10 µM: at 10^-5 M. The format is biochemical. Here is the method:
Δ^5 -Lipoxygenase inhibition was measured by following the conversion of ^14 C-arachidonic acid to ^14 C-5-HETE, using rat basophil leukemia cells (RBL-1 cells) as the enzyme source. These cells were maintained in stationary stock cultures and grown in spinner cultures prior to isolation by centrifugation at 4° C. at 1,500×g for 10 minutes. The cells were washed three times at 4° C. with 0.05M Tris HCl (ph 7.2) containing 1 mM EDTA, 14 μM indomethacin and 0.9% NaCl. They were then homogenized at 0°-4° C. using a glass/glass homogenizer in 0.05M Tris-HCl (pH 7.2) containing 1 mM EDTA and 14 μM indomethacin. The homogenate was then centrifuged at 49,300×g for 20 minutes (0°-4° C.) and the resulting supernatant frozen in small aliquots in a dry ice/acetone bath prior to storage at -80° C. Under these conditions, the enzyme was stable to freezing and thawing and to preincubation for 10 minutes at 30° C.
For enzyme assay, 100-200 μl of enzyme was incubated in the presence and absence of test compound (prepared in DMSO) for 10 minutes at 30° C. in 0.05M Tris-HCl buffer (pH 7.2) containing 1 mM glutathione, 2 mM CaCl2, 14 μM indomethacin and 0.25 and 0.5 mM EDTA (final volume 400 μl). The final DMSO concentration in these assays was 4%. The assay was initiated by the addition of 100 μl ^14 C-arachidonic acid (58 mCi/mmole) and incubations were carried out for 10 minutes at 37° C. in a shaking water bath. The reactions were stopped by the simultaneous addition of 4.0 ml of diethylether and 100 μl of 1.0 m citric acid, while the tubes were vigorously vortexed. The ^14 C-5-HETE generated by the enzyme was extracted into the acidified ether layer which was separated from the aqueous layer by freezing the assay tubes in a dry ice/acetone bath prior to decanting the liquid ether layer. The ether layer was evaporated to dryness under N2, the residue dissolved in 65 μl chloroform:methanol (2:1 v/v), prior to separating ^14 C-5-HETE from other ^14 C-labeled compounds on silica gel impregnated glass fiber TLC plates utilizing an elution solvent of isoctane:methylethylketone:acetic acid (100:9:1 v/v). ^14 C-5-HETE was identified by its co-chromatography with a chemically synthesized standard. The radioactive peaks of the chromatogram were cut out and the radioactivity was quantitated by liquid scintillation counting. The amount of 5-HETE obtained per sample was expressed as the percent of total and was calculated in the basis of: [formula] in order to evaluate the effect of the test compounds, the mean percent inhibition of ^14 C-5-HETE production was calculated. The IC50 for a drug was determined from a linear regression analysis of a plot of the mean percent inhibition vs drug concentration.

Bounds are passed on as bounds.

`CC(C)c1ccc2ncn(/C=C/C(=O)NCCCCc3cccnc3)c(=O)c2c1` [drawing 12] showed a concentration for half-maximal inhibition (IC50) in experiment [1] of 650 nM. In addition, the inhibition at 10 µM in experiment [2] stood at 84%. The compound further displayed an inhibition at 1 µM in experiment [2] (at 10^-6 M) of 27%.
As to `CC(C)c1ccc2ncn(/C=C/C(=O)NCCCCc3ccccn3)c(=O)c2c1` [drawing 17], the 50% inhibitory concentration (IC50) in experiment [1] is greater than 1000 nM. Also, in experiment [2], the half-inhibitory concentration (IC50) amounted to 800 nM and the inhibition at 10 µM is 100%.
Compound `CC(C)c1ccc2ncn(/C=C/C(=O)NCCCCn3ccnc3)c(=O)c2c1` [drawing 15] came in with a 50% inhibitory concentration (IC50) in experiment [1] greater than 1000 nM. Moreover, the inhibition at 10 µM in experiment [2] was determined as 0%.

Broadly, the IC50 is the concentration that gives 50% inhibition. Low readings indicate greater potency in that assay, high ones weaker potency in that assay. A word on the inhibition: it is the relative decrease from the control value, in per cent. Lower therefore signals a weak effect.

The record behind these values is US4599336A, “Derivatives of (E)-3-(4-oxo-4H-quinazolin-3-yl)-2-propenamide” (Hoffmann-La Roche Inc., priority 1983, dated 1986).
